Test results from patent publication US7612113B2, “Hydroxy tetrahydro-naphthalenylurea derivatives” (Xention Limited, priority 2002, dated 2009).
pIC50: −log10 of the molar value. Like-named read-outs stand apart in the source and are kept apart here.

Target: T1, human VR1 (Homo sapiens, UniProt Q8NER1)
T1 construct: expressed in transfected cells
Experiment: capsaicin-induced Ca2+ influx in the human VR1-transfected CHO cell line (Assay 1)
Type: cell-based
Conditions: 10 nM capsaicin, human VR1-CHOluc9aeq cells
Source text: [Measurement of capsaicin-induced Ca^2+ influx in the human VR1-transfected CHO cell line] (Assay 1)
• (1) Establishment of the Human VR1-CHOluc9aeq Cell Line • Human vanilloid receptor (hVR1) cDNA was cloned from libraries of axotomized dorsal root ganglia (WO 00/29577). The cloned hVR1 cDNA was constructed with pcDNA3 vector and transfected into a CHOluc9aeq cell line. The cell line contains aequorin and CRE-luciferase reporter genes as read-out signals. The transfectants were cloned by limiting dilution in selection medium (DMEM/F12 medium (Gibco BRL) supplemented with 10% FCS, 1.4 mM Sodium pyruvate, 20 mM HEPES, 0.15% Sodium bicarbonate, 100 U/ml penicillin, 100 μg/ml streptomycin, 2 mM glutamine, non-essential amino acids and 2 mg/ml G418). Ca^2+ influx was examined in the capsaicin-stimulated clones. A high responder clone was selected and used for further experiments in the project. The human VR1-CHOluc9aeq cells were maintained in the selection medium and passaged every 3-4 days at 1-2.5×10^5 cells/flask ([…]). • (2) Measurement of Ca^2+ Influx Using FDSS-3000 • Human VR1-CHOluc9aeq cells were suspended in a culture medium which is the same as the selection medium except for G418 and seeded at a density of 1,000 cells per well into 384-well plates (black walled clear-base/Nalge Nunc International). Following the culture for 48 hrs the medium was changed to 2 μM Fluo-3 AM (Molecular Probes) and 0.02% Puronic F-127 in assay buffer (Hank's balanced salt solution (HBSS), 17 mM HEPES (pH7.4), 1 mM Probenecid, 0.1% BSA) and the cells were incubated for 60 min at. 25° C. After washing twice with assay buffer the cells were incubated with a test compound or vehicle for 20 min at 25° C. Mobilization of cytoplasmic Ca^2+ was measured by FDSS-3000 (λex=488 nm, λem=540 nm/Hamamatsu Photonics) for 60 sec after the stimulation with 10 nM capsaicin. Integral R was calculated and compared with controls. [Measurement of the Capsaicin-Induced Ca^2+ Influx in Primary Cultured Rat Dorsal Root Ganglia Neurons] (Assay 2) • (1) Preparation of Rat Dorsal Root Ganglia Neurons • New born Wister rats (5-11 days) were sacrificed and dorsal root ganglia (DRG) was removed. DRG was incubated with 0.1% trypsin (Gibco BRL) in PBS(−) (Gibco BRL) for 30 min at 37° C., then a half volume of fetal calf serum (FCS) was added and the cells were spun down. The DRG neuron cells were resuspended in Ham F12/5% FCS/5% horse serum (Gibco BRL) and dispersed by repeated pipetting and passing through 70 μm mesh Falcon). The culture plate was incubated for 3 hours at 37° C. to remove contaminating Schwann cells. Non-adherent cells were recovered and further cultured in laminin-coated 384 well plates (Nunc) at 1×10^4 cells/50 μl/well for 2 days in the presence of 50 ng/ml recombinant rat NGF (Sigma) and 50 μM 5-fluorodeoxyuridine (Sigma). • (2) Ca^2+ Mobilization Assay • DRG neuron cells were washed twice with HBSS supplemented with 17 mM HEPES (pH 7.4) and 0.1% BSA. After incubating with 2 μM fluo-3AM (Molecular Probe), 0.02% PF127 (Gibco BRL) and 1 mM probenecid (Sigma) for 40 min at 37° C., cells were washed 3 times. The cells were incubated with VR1 antagonists or vehicle (dimethylsulphoxide) and then with 1 μM capsaicin in FDSS-6000 (λex=480 nm, λem=520 nm/Hamamatsu Photonics). The fluorescence changes at 480 nm were monitored for 2.5 min. Integral R was calculated and compared with controls. [Organ Bath Assay to Measure the Capsaicin-Induced Bladder Contraction] (Assay 3)
The data corresponds to the compounds as yielded by solid phase synthesis and thus to levels of purity of about 40 to 90%. For practical reasons, the compounds are grouped in four classes of activity as follows: IC50=A(<or=)0.1 μM<B(<or=)0.5 μM<C(<or=)1 μM<D

[1] = read-out: In vitro activity class
[2] = Table 1, read-out: activity class
[3] = Table 2, read-out: activity class
[4] = Table 3, read-out: activity class

T1 sequence (Q8NER1 whole entry): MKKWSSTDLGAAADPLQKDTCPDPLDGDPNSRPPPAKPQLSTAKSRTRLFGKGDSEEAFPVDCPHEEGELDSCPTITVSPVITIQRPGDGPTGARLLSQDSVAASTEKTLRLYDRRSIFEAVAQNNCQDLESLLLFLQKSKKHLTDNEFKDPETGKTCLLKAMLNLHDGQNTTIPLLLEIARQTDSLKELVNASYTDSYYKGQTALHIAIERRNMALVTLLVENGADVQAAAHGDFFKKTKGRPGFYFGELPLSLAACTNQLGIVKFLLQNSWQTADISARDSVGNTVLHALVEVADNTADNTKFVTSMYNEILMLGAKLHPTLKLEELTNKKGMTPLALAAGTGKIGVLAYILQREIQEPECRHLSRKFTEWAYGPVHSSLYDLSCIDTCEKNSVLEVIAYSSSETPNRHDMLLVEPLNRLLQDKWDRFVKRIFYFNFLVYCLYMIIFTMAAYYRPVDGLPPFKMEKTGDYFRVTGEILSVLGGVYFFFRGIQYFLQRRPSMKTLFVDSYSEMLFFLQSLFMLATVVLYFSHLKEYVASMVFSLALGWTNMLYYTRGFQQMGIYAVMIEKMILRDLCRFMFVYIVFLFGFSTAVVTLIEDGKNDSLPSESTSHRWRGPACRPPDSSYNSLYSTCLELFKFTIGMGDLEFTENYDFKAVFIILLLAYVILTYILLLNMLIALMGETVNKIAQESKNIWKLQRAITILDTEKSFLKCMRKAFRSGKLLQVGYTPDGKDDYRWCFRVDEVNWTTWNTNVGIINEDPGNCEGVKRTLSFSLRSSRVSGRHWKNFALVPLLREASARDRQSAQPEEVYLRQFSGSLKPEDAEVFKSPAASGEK

| pIC50 [3] | SMILES | also measured |
| --- | --- | --- |
| > 7.00 | O=C(Nc1ccc(OC(F)(F)F)cc1)Nc1cccc2c1CC(O)CC2 (centres unmarked) [Example 4-40] |  |
| 6.30 to 7.00 | CC(NC(=O)Nc1cccc2c1CC(O)CC2)c1ccc(F)cc1 (centres unmarked) [Example 4-41] |  |
| > 7.00 | CC(NC(=O)Nc1cccc2c1CC(O)CC2)c1ccc(Br)cc1 (centres unmarked) [Example 4-42] |  |
| 6.00 to 6.30 | O=C(Nc1cccc2c1CC(O)CC2)NC(c1ccccc1)c1ccccc1 (centres unmarked) [Example 4-43] |  |
| 6.30 to 7.00 | CC(C)(NC(=O)Nc1cccc2c1CC(O)CC2)c1ccc(Cl)cc1 (centres unmarked) [Example 4-44] |  |
| > 7.00 | O=C(NCc1ccc(SC(F)(F)F)cc1)Nc1cccc2c1CC(O)CC2 (centres unmarked) [Example 4-45] |  |
| > 7.00 | O=C(NCc1cccc2ccccc12)Nc1cccc2c1CC(O)CC2 (centres unmarked) [Example 4-46] |  |
| 6.30 to 7.00 | N#CCc1ccc(NC(=O)Nc2cccc3c2CC(O)CC3)cc1 (centres unmarked) [Example 4-47] |  |
| 6.30 to 7.00 | CC(NC(=O)Nc1cccc2c1CC(O)CC2)c1ccccc1 (centres unmarked) [Example 4-48] |  |
| > 7.00 | CC(NC(=O)Nc1cccc2c1CC(O)CC2)c1cccc2ccccc12 (centres unmarked) [Example 4-49] |  |
| 6.00 to 6.30 | NS(=O)(=O)c1ccc(CNC(=O)Nc2cccc3c2CC(O)CC3)cc1 (centres unmarked) [Example 4-50] |  |
| > 7.00 | O=C(NCc1ccc(C(F)(F)F)c(NC2CCCC2)c1)Nc1cccc2c1CC(O)CC2 (centres unmarked) [Example 4-51] |  |
| > 7.00 | O=C(NCc1ccc(C(F)(F)F)c(NC2CCCC2)c1)Nc1cccc2c1CC(O)CC2 (centres unmarked) [Example 4-52] |  |
| > 7.00 | O=C(NCCc1ccc(Cl)cc1)Nc1cccc2c1C[C@H](O)CC2 [Example 4-53] |  |
| > 7.00 | O=C(NCCc1ccc(Cl)cc1)Nc1cccc2c1C[C@@H](O)CC2 [Example 4-54] |  |

The remaining lines, values behind:

| SMILES | pIC50 [3] | also measured |
| --- | --- | --- |
| O=C(Nc1ccccc1)Nc1cccc2c1CC(O)CC2 (centres unmarked) [Example 2-1, N-phenyl-N′-(7-hydroxy-5,6,7,8-tetrahydro-1-naphthalenyl) urea] |  | pIC50 [1]: 6.00 to 6.30 |
| Cc1cc(NC(=O)Nc2cccc3c2CC(O)CC3)ccc1Cl (centres unmarked) [Example 2-36] |  | pIC50 [2]: > 7.00 |
| COc1cc(NC(=O)Nc2cccc3c2CC(O)CC3)cc(OC)c1 (centres unmarked) [Example 2-37] |  | pIC50 [2]: > 7.00 |
| O=C(NCc1ccc(OC(F)(F)F)cc1)Nc1cccc2c1CC(O)CC2 (centres unmarked) [Example 4-1, N-(7-hydroxy-5,6,7,8-tetrahydro-naphthalen-1-yl)-N′-(4-trifluoromethoxy-benzyl)-urea] |  | pIC50 [1]: > 7.00 |
| O=C(NCc1ccc(OC(F)(F)F)cc1)Nc1cccc2c1C[C@H](O)CC2 [Example 4-2, N-{(R)-7-hydroxy-5,6,7,8-tetrahydro-naphthalen-1-yl}-N′-(4-trifluoromethoxy-benzyl)-urea] |  | pIC50 [1]: > 7.00 |
| O=C(NCc1ccc(OC(F)(F)F)cc1)Nc1cccc2c1C[C@@H](O)CC2 [Example 4-3, N-{(S)-7-hydroxy-5,6,7,8-tetrahydro-naphthalen-1-yl}-N′-(4-trifluoromethoxy-benzyl)-urea] |  | pIC50 [1]: > 7.00 |
| O=C(NCc1ccc(C(F)(F)F)cc1)Nc1cccc2c1C[C@@H](O)CC2 [Example 4-5, N-{(S)-7-hydroxy-5,6,7,8-tetrahydro-naphthalen-1-yl}-N′-(4-trifluoromethyl-benzyl)-urea] |  | pIC50 [1]: > 7.00 |
| O=C(NCc1ccccc1)Nc1cccc2c1CC(O)CC2 (centres unmarked) [Example 4-6] | 6.30 to 7.00 |  |
| O=C(NCc1ccc(Br)cc1)Nc1cccc2c1CC(O)CC2 (centres unmarked) [Example 4-7] | > 7.00 |  |
| O=C(NCc1ccc(C(F)(F)F)cc1)Nc1cccc2c1CC(O)CC2 (centres unmarked) [Example 4-8] | > 7.00 |  |
| O=C(NCc1ccc(Cl)cc1)Nc1cccc2c1CC(O)CC2 (centres unmarked) [Example 4-9] | > 7.00 |  |
| O=C(NCc1cccc(C(F)(F)F)c1)Nc1cccc2c1CC(O)CC2 (centres unmarked) [Example 4-10] | > 7.00 |  |
| COc1ccccc1CNC(=O)Nc1cccc2c1CC(O)CC2 (centres unmarked) [Example 4-11] | 6.30 to 7.00 |  |
| O=C(NCc1ccc(F)c(F)c1)Nc1cccc2c1CC(O)CC2 (centres unmarked) [Example 4-12] | > 7.00 |  |
| COc1cccc(CNC(=O)Nc2cccc3c2CC(O)CC3)c1 (centres unmarked) [Example 4-13] | 6.30 to 7.00 |  |
| O=C(NCc1cccc(Cl)c1)Nc1cccc2c1CC(O)CC2 (centres unmarked) [Example 4-14] | > 7.00 |  |
| O=C(NCc1ccc(Cl)cc1Cl)Nc1cccc2c1CC(O)CC2 (centres unmarked) [Example 4-15] | > 7.00 |  |
| CC(C)(C)c1ccc(CNC(=O)Nc2cccc3c2CC(O)CC3)cc1 (centres unmarked) [Example 4-16] | > 7.00 |  |
| O=C(NCc1ccc(OC(F)(F)F)cc1)Nc1cccc2c1CC(O)CC2 (centres unmarked) [Example 4-17] | > 7.00 |  |
| O=C(NCc1ccc(Cl)c(Cl)c1)Nc1cccc2c1CC(O)CC2 (centres unmarked) [Example 4-18] | > 7.00 |  |
| O=C(NCc1ccccc1C(F)(F)F)Nc1cccc2c1CC(O)CC2 (centres unmarked) [Example 4-19] | > 7.00 |  |
| COc1ccc(CNC(=O)Nc2cccc3c2CC(O)CC3)c(OC)c1 (centres unmarked) [Example 4-20] | 6.30 to 7.00 |  |
| O=C(NCc1ccccc1Br)Nc1cccc2c1CC(O)CC2 (centres unmarked) [Example 4-21] | > 7.00 |  |
| COC(=O)c1ccc(CNC(=O)Nc2cccc3c2CC(O)CC3)cc1 (centres unmarked) [Example 4-22] | > 7.00 |  |

| SMILES | pIC50 [3] | also measured |
| --- | --- | --- |
| COc1cc(OC)c(CNC(=O)Nc2cccc3c2CC(O)CC3)c(OC)c1 (centres unmarked) [Example 4-23] | 6.00 to 6.30 |  |
| O=C(NCc1cccc(Br)c1)Nc1cccc2c1CC(O)CC2 (centres unmarked) [Example 4-24] | > 7.00 |  |
| O=C(NCc1ccc([N+](=O)[O-])cc1)Nc1cccc2c1CC(O)CC2 (centres unmarked) [Example 4-25] | > 7.00 |  |
| O=C(NCc1cc(C(F)(F)F)cc(C(F)(F)F)c1)Nc1cccc2c1CC(O)CC2 (centres unmarked) [Example 4-26] | > 7.00 |  |
| COc1ccc(CNC(=O)Nc2cccc3c2CC(O)CC3)cc1OC (centres unmarked) [Example 4-27] | 6.00 to 6.30 |  |
| O=C(NCc1c(F)cccc1F)Nc1cccc2c1CC(O)CC2 (centres unmarked) [Example 4-28] | 6.00 to 6.30 |  |
| O=C(NCc1cccc(OC(F)(F)F)c1)Nc1cccc2c1CC(O)CC2 (centres unmarked) [Example 4-29] | > 7.00 |  |
| O=C(NCc1ccc(C(=O)O)cc1)Nc1cccc2c1CC(O)CC2 (centres unmarked) [Example 4-30] | 6.00 to 6.30 |  |
| Nc1ccc(CNC(=O)Nc2cccc3c2CC(O)CC3)cc1 (centres unmarked) [Example 4-31] | 6.00 to 6.30 |  |
| Nc1ccccc1CNC(=O)Nc1cccc2c1CC(O)CC2 (centres unmarked) [Example 4-32] | 6.00 to 6.30 |  |
| CCOC(=O)Cc1ccc(NC(=O)Nc2cccc3c2CC(O)CC3)cc1 (centres unmarked) [Example 4-33] | 6.30 to 7.00 |  |
| CN(C)c1ccc(CNC(=O)Nc2cccc3c2CC(O)CC3)cc1 (centres unmarked) [Example 4-34] | > 7.00 |  |
| O=C(NCc1ccc(Cl)c(C(F)(F)F)c1)Nc1cccc2c1CC(O)CC2 (centres unmarked) [Example 4-35] | > 7.00 |  |
| O=C(NCCc1ccc(Cl)cc1)Nc1cccc2c1CC(O)CC2 (centres unmarked) [Example 4-36] | > 7.00 |  |
| O=C(NCc1ccc(C(F)(F)F)c(F)c1)Nc1cccc2c1CC(O)CC2 (centres unmarked) [Example 4-37] | > 7.00 |  |
| Cc1ccc(Oc2ccc(NC(=O)Nc3cccc4c3CC(O)CC4)cc2)cc1 (centres unmarked) [Example 4-38] | > 7.00 |  |
| O=C(Nc1ccc(Oc2ccc(Cl)cc2)cc1)Nc1cccc2c1CC(O)CC2 (centres unmarked) [Example 4-39] | > 7.00 |  |
| O=C(Nc1ccccc1F)Nc1cccc2c1CC(O)CC2 (centres unmarked) [Example 5-2] |  | pIC50 [4]: 6.00 to 6.30 |
| O=C(Nc1cccc(Br)c1)Nc1cccc2c1CC(O)CC2 (centres unmarked) [Example 5-5] |  | pIC50 [4]: > 7.00 |
| Cc1ccc(NC(=O)Nc2cccc3c2CC(O)CC3)cc1 (centres unmarked) [Example 5-7] |  | pIC50 [4]: 6.30 to 7.00 |
| CC(C)c1cccc(NC(=O)Nc2cccc3c2CC(O)CC3)c1 (centres unmarked) [Example 5-8] |  | pIC50 [4]: > 7.00 |
| CC(C)(C)c1ccc(NC(=O)Nc2cccc3c2CC(O)CC3)cc1 (centres unmarked) [Example 5-9] |  | pIC50 [4]: > 7.00 |
| COc1cc(NC(=O)Nc2cccc3c2CC(O)CC3)cc(C(F)(F)F)c1 (centres unmarked) [Example 5-12] |  | pIC50 [4]: > 7.00 |
